pEC50: −log10 of the molar value. Bridge positions count the residues as written; N and C are the ends. Square brackets hold non-standard residues; d marks the D form. Side chains are listed from the residue outwards. Peptide text beside a SMILES is read from it. * marks the point of attachment. Palmitoyl = CCCCCCCCCCCCCCCC(=O)*; Aib = CC(C)(N)C(=O)O
Target: glucagon receptor (Homo sapiens, UniProt P47871)
Assay: Functional assay, cAMP synthesis: luciferase reporter in HEK293 cells co-transfected with glucagon receptor
[1] = EC50, Glucagon Receptor, Table 13
[2] = EC50 at Glucagon Receptor, Table 31
[3] = Glucagon Receptor EC50, Table 20

glucagon receptor, sequence (P47871 26-477): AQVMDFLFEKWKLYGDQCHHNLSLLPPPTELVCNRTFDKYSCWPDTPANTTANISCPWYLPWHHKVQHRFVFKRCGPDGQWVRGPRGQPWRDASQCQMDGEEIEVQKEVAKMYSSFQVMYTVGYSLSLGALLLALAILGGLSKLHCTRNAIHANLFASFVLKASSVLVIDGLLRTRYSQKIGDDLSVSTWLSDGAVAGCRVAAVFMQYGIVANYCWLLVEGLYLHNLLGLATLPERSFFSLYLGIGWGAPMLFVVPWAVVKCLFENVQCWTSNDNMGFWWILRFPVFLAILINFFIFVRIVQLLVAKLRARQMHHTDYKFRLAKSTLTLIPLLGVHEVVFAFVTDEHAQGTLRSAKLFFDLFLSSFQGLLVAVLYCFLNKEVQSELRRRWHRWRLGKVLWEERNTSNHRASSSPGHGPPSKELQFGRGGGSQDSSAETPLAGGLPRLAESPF
Experimental: Peptide absorbance readings were obtained from UV Absorbance measurements at 280 nm on a Genesys 6 Spectrophotometer (Thermo Electron Corporation). Beer's Law was used to calculate solution concentrations based on the number of tryptophan and tyrosine residues in each analog. At the end of the incubation, 100 μL LucLite luminescence substrate reagent was added to each well, the plate sealed and shaken, and placed into a Wallac Trilux luminescence counter for cAMP detection.
HEK293 cells were co-transfected with the GcgR or GLP-1R cDNAs and a luciferase reporter gene-linked to a cAMP response element (CRE). […] The plate was incubated for 10 min in the dark and light output was quantified on a MicroBeta1450 liquid scintillation counter (Perkin-Elmer, Wellesley, Mass.).

In the case of `CSCC[C@H](NC(=O)[C@H](CC(C)C)NC(=O)[C@H](Cc1c[nH]c2ccccc12)NC(=O)[C@H](CC(N)=O)NC(=O)[C@@H](NC(=O)[C@H](Cc1ccccc1)NC(=O)[C@H](CCC(=O)O)NC(=O)[C@@H]1CCCCNC(=O)CC[C@H](NC(=O)[C@H](CC(=O)O)NC(=O)[C@H](CC(C)C)NC(=O)[C@H](Cc2ccc(O)cc2)NC(=O)[C@H](CCCCN)NC(=O)[C@H](CO)NC(=O)[C@H](Cc2ccc(O)cc2)NC(=O)[C@H](CC(=O)O)NC(=O)[C@H](CO)NC(=O)[C@@H](NC(=O)[C@H](Cc2ccccc2)NC(=O)[C@@H](NC(=O)CNC(=O)[C@H](CCC(N)=O)NC(=O)[C@H](CO)NC(=O)[C@@H](N)Cc2ccc(O)cc2)[C@@H](C)O)[C@@H](C)O)C(=O)N[C@@H](CCC(N)=O)C(=O)N[C@@H](C)C(=O)N[C@@H](C)C(=O)N1)C(C)C)C(=O)N[C@@H](CC(N)=O)C(=O)NCC(=O)NCC(=O)N1CCC[C@H]1C(=O)N[C@@H](CO)C(=O)N[C@@H](CO)C(=O)NCC(=O)N[C@@H](C)C(=O)N1CCC[C@H]1C(=O)N1CCC[C@H]1C(=O)N1CCC[C@H]1C(=O)N[C@@H](CO)C(N)=O` [SEQ ID NO: 555] (H-YSQGTFTSDYSKYLDEQAAKEFVNWLMNGGPSSGAPPPS-NH2; lactam 16-20; N-terminus assumed), the pEC50 (EC50, Glucagon receptor, Table 18) was 10.36.

Molecule `CCCCCCCCCCCCCCCC(=O)NCCCC[C@H](NC(=O)[C@H](CC(=O)O)NC(=O)[C@H](CO)NC(=O)[C@@H](NC(=O)[C@H](Cc1ccccc1)NC(=O)[C@@H](NC(=O)CNC(=O)[C@H](CCC(N)=O)NC(=O)[C@H](CO)NC(=O)[C@@H](N)Cc1c[nH]cn1)[C@@H](C)O)[C@@H](C)O)C(=O)N[C@@H](CO)C(=O)N[C@@H](CCCCN)C(=O)N[C@@H](Cc1ccc(O)cc1)C(=O)N[C@@H](CC(C)C)C(=O)N[C@@H](CC(=O)O)C(=O)N[C@@H](CCC(=O)O)C(=O)N[C@@H](CCCNC(=N)N)C(=O)N[C@@H](CCCNC(=N)N)C(=O)N[C@@H](C)C(=O)N[C@@H](CCCCN)C(=O)N[C@@H](CC(=O)O)C(=O)N[C@@H](Cc1ccccc1)C(=O)N[C@H](C(=O)N[C@@H](CCC(N)=O)C(=O)N[C@@H](Cc1c[nH]c2ccccc12)C(=O)N[C@@H](CC(C)C)C(=O)N[C@@H](CCSC)C(=O)N[C@@H](CC(N)=O)C(=O)N[C@H](C(N)=O)[C@@H](C)O)C(C)C` [E16 K20-glucagon-NH2 with K^10—C16] has a pEC50 [1] of 9.40 and a pEC50 (EC50 at Glucagon Receptor, Table 17) of 9.63.

`CCCCCCCCCCCCCCCC(=O)N[C@@H](CCC(=O)NCCCC[C@H](NC(=O)[C@H](CC(=O)O)NC(=O)[C@H](CO)NC(=O)[C@@H](NC(=O)[C@H](Cc1ccccc1)NC(=O)[C@@H](NC(=O)CNC(=O)[C@H](CCC(N)=O)NC(=O)C(C)(C)NC(=O)[C@@H](N)Cc1cnc[nH]1)[C@@H](C)O)[C@@H](C)O)C(=O)N[C@@H](CO)C(=O)N[C@@H](CCCCN)C(=O)N[C@@H](Cc1ccc(O)cc1)C(=O)N[C@@H](CC(C)C)C(=O)N[C@@H](CC(=O)O)C(=O)NC(C)(C)C(=O)N[C@@H](CCCNC(=N)N)C(=O)N[C@@H](C)C(=O)N[C@@H](C)C(=O)N[C@@H](CCC(N)=O)C(=O)N[C@@H](CC(=O)O)C(=O)N[C@@H](Cc1ccccc1)C(=O)N[C@H](C(=O)N[C@@H](CCC(N)=O)C(=O)N[C@@H](Cc1c[nH]c2ccccc12)C(=O)N[C@@H](CC(C)C)C(=O)N[C@@H](CCSC)C(=O)N[C@@H](CC(=O)O)C(=O)N[C@H](C(N)=O)[C@@H](C)O)C(C)C)C(=O)O` [compound 656] was tested, and the pEC50 [2] was 11.22.

`CCCCCCCCCCCCCCCC(=O)N[C@@H](Cc1c[nH]c2ccccc12)C(=O)NCCCC[C@H](NC(=O)[C@H](CC(=O)O)NC(=O)[C@H](CO)NC(=O)[C@@H](NC(=O)[C@H](Cc1ccccc1)NC(=O)[C@@H](NC(=O)CNC(=O)[C@H](CCC(N)=O)NC(=O)C(C)(C)NC(=O)[C@@H](N)Cc1c[nH]cn1)[C@@H](C)O)[C@@H](C)O)C(=O)N[C@@H](CO)C(=O)N[C@@H](CCCCN)C(=O)N[C@@H](Cc1ccc(O)cc1)C(=O)N[C@@H](CC(C)C)C(=O)N[C@@H](CC(=O)O)C(=O)NC(C)(C)C(=O)N[C@@H](CCCNC(=N)N)C(=O)N[C@@H](CCCNC(=N)N)C(=O)N[C@@H](C)C(=O)N[C@@H](CCC(N)=O)C(=O)N[C@@H](CC(=O)O)C(=O)N[C@@H](Cc1ccccc1)C(=O)N[C@H](C(=O)N[C@@H](CS)C(=O)N[C@@H](Cc1c[nH]c2ccccc12)C(=O)N[C@@H](CC(C)C)C(=O)N[C@@H](CCSC)C(=O)N[C@@H](CC(N)=O)C(=O)N[C@H](C(N)=O)[C@@H](C)O)C(C)C` was tested, and the pEC50 [3] was 9.60.

With `CCCCCCCCCCCCCCCC(=O)N[C@@H](Cc1c[nH]c2ccccc12)C(=O)NCCCC[C@H](NC(=O)[C@H](CC(=O)O)NC(=O)[C@H](CO)NC(=O)[C@@H](NC(=O)[C@H](Cc1ccccc1)NC(=O)[C@@H](NC(=O)CNC(=O)[C@H](CCC(N)=O)NC(=O)C(C)(C)NC(=O)[C@@H](N)Cc1c[nH]cn1)[C@@H](C)O)[C@@H](C)O)C(=O)N[C@@H](CO)C(=O)N[C@@H](CCCCN)C(=O)N[C@@H](Cc1ccc(O)cc1)C(=O)N[C@@H](CC(C)C)C(=O)N[C@@H](CC(=O)O)C(=O)NC(C)(C)C(=O)N[C@@H](CCCNC(=N)N)C(=O)N[C@@H](CCCNC(=N)N)C(=O)N[C@@H](C)C(=O)NC(C)(C)C(=O)N[C@@H](CC(=O)O)C(=O)N[C@@H](Cc1ccccc1)C(=O)N[C@H](C(=O)N[C@@H](CS)C(=O)N[C@@H](Cc1c[nH]c2ccccc12)C(=O)N[C@@H](CC(C)C)C(=O)N[C@@H](CCSC)C(=O)N[C@@H](CC(N)=O)C(=O)N[C@H](C(N)=O)[C@@H](C)O)C(C)C` (H-H[Aib]QGTFTSDK([Trp-Palmitoyl])SKYLD[Aib]RRA[Aib]DFVCWLMNT-NH2; N-terminus assumed) the pEC50 [3] was 8.69.

Work on `CCCCCCCCCCCCCCCC(=O)N[C@@H](Cc1c[nH]c2ccccc12)C(=O)NCCCC[C@H](NC(=O)[C@H](CC(=O)O)NC(=O)[C@H](CO)NC(=O)[C@@H](NC(=O)[C@H](Cc1ccccc1)NC(=O)[C@@H](NC(=O)CNC(=O)[C@H](CCC(N)=O)NC(=O)[C@H](CO)NC(=O)[C@@H](N)Cc1c[nH]cn1)[C@@H](C)O)[C@@H](C)O)C(=O)N[C@@H](CO)C(=O)N[C@@H](CCCCN)C(=O)N[C@@H](Cc1ccc(O)cc1)C(=O)N[C@@H](CC(C)C)C(=O)N[C@@H](CC(=O)O)C(=O)N[C@@H](CCC(=O)O)C(=O)N[C@@H](CCCNC(=N)N)C(=O)N[C@@H](CCCNC(=N)N)C(=O)N[C@@H](C)C(=O)N[C@@H](CCCCN)C(=O)N[C@@H](CC(=O)O)C(=O)N[C@@H](Cc1ccccc1)C(=O)N[C@H](C(=O)N[C@@H](CCC(N)=O)C(=O)N[C@@H](Cc1c[nH]c2ccccc12)C(=O)N[C@@H](CC(C)C)C(=O)N[C@@H](CCSC)C(=O)N[C@@H](CC(N)=O)C(=O)N[C@H](C(N)=O)[C@@H](C)O)C(C)C` [E16 K20-glucagon-NH2 with K^10—W—C16] yielded a pEC50 [1] of 9.85.

`CCCCCCCCCCCCCCCC(=O)N[C@@H](CCC(=O)N[C@@H](CCC(=O)NCCCC[C@H](NC(=O)[C@H](CC(=O)O)NC(=O)[C@H](CO)NC(=O)[C@@H](NC(=O)[C@H](Cc1ccccc1)NC(=O)[C@@H](NC(=O)CNC(=O)[C@H](CCC(N)=O)NC(=O)C(C)(C)NC(=O)[C@@H](N)Cc1c[nH]cn1)[C@@H](C)O)[C@@H](C)CC)C(=O)N[C@@H](CO)C(=O)N[C@@H](CCCCN)C(=O)N[C@@H](Cc1ccc(O)cc1)C(=O)N[C@@H](CC(C)C)C(=O)N[C@@H](CC(=O)O)C(=O)N[C@@H](CCC(=O)O)C(=O)N[C@@H](CCC(N)=O)C(=O)N[C@@H](C)C(=O)N[C@@H](C)C(=O)N[C@@H](CCCCN)C(=O)N[C@@H](CCC(=O)O)C(=O)N[C@@H](Cc1ccccc1)C(=O)N[C@H](C(=O)N[C@@H](C)C(=O)N[C@@H](Cc1c[nH]c2ccccc12)C(=O)N[C@@H](CC(C)C)C(=O)N[C@@H](CCSC)C(=O)N[C@@H](CC(N)=O)C(=O)N[C@H](C(N)=O)[C@@H](C)O)[C@@H](C)CC)C(=O)O)C(=O)O` [compound 650] was tested, and the pEC50 [2] was 11.15.

Reference: patent publication US8969294B2 (Istituto di Recerche di Biologia Molecolare P. Angeletti …, priority 2008, dated 2015)
